We go through eight molecules from PubChem BioAssay (NCI).

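Compound exposure: 48 hours, 5 concentrations, 96-well plates. Definition used: TGI = concentration required for complete inhibition of growth.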 Where a SMILES comes first, the peptide text is derived from it. The star is where a group is joined. Boc = CC(C)(C)OC(=O)*; Bz = O=C(c1ccccc1)*

Common to all, as to experiment: inhibition of tumour cell growth, NCI panel, 48 h
The subject of assay [1] is ACHN renal.
In assay [2] the test system is UACC-62 melanoma.
Assay [3] relates to OVCAR-5 ovarian.
The test system of assay [4] is HCT-116 colon.
The test system of assay [5] is OVCAR-4 ovarian.
Assay [6] deals with U251 CNS.
The subject of assay [7] is SK-MEL-28 melanoma.
Assay [8] concerns SF-539 CNS.
In assay [9] the test system is OVCAR-3 ovarian.
Assay [10] concerns CAKI-1 renal.
Assay [11] deals with UACC-257 melanoma.
The test system of assay [12] is RPMI-8226 leukemia.
For assay [13], the system named is HOP-92 NSCLC.
The subject of assay [14] is T-47D breast.
The test system of assay [15] is OVCAR-8 ovarian.
The test system of assay [16] is RXF 393 renal.
Assay [17] has as its system SK-MEL-2 melanoma.
Assay [18] deals with HCT-15 colon.
In assay [19] the test system is NCI-H460 lung.
In assay [20] the test system is SR leukemia.

For the molecule `CC(C)(C)OC(=O)NCCCCC(N)C(N)=O` (stereo not given), the TGI in assay [1], in assay [2], in assay [3], in [4], in assay [5] and in assay [6] was more than 100 µM throughout. Besides, the TGI in [7], in assay [8], in [9], in assay [10], in assay [11] and in assay [12] was more than 100 µM throughout. Moreover, the TGI in assay [13], in [14], in assay [15], in assay [16], in assay [17] and in assay [18] was more than 100 µM in each case. Moreover, in assay [19], the TGI was more than 100 µM.

For the molecule `CC(=O)OC12/C(=N/O)CCCCCC1c1ccccc12` (stereo not given), the TGI in assay [1], in assay [2], in assay [4], in [5], in assay [6] and in assay [7] was more than 100 µM each time. For the same molecule, the TGI in assay [11], in [12], in assay [15], in [16], in assay [17] and in assay [20] was more than 100 µM in each case. Moreover, the TGI in assay [18] and in [19] was more than 100 µM throughout.

For the molecule `CC(NC(=O)C(Cc1ccc(OC(=O)c2ccccc2)cc1)NC(=O)OC(C)(C)C)C(=O)NC(Cc1ccccc1)C(=O)NCC(N)=O` (stereo not given) (Boc-Y(Bz)AFG-NH2; configuration not given here), the TGI was found to be 54.6 µM in [1]; 37.3 µM in assay [2]; 40.3 µM in assay [3]; 91.6 µM in assay [4]; 47.2 µM in [5]; 35.1 µM in assay [6]. The TGI was more than 100 µM in [7]; 68.3 µM in assay [8]; more than 100 µM in [10]; 37 µM in assay [11]; 59.7 µM in [12]; 50.9 µM in assay [13]. Besides, the TGI in assay [14] is 50.7 µM; in [15], 58.8 µM; in assay [16], 46.4 µM; in assay [17] it was 35.6 µM; in [18] it was more than 100 µM; in [19], 33.7 µM.

As to `CCOC(=O)c1cnn2c1ncc1c(=O)n(NC(N)=O)ccc12`, the TGI in assay [1], in assay [2], in [3], in assay [4], in assay [5] and in [6] was more than 100 µM throughout. Moreover, the TGI in assay [7], in assay [8], in [9], in assay [10], in assay [11] and in [13] was more than 100 µM throughout. Besides, the TGI in assay [14], in assay [15], in [17], in assay [18] and in assay [19] was more than 100 µM each time.

`Oc1ccc(-c2csc(NNC3=NC/C(=C/c4ccc5c(c4)OCO5)S3)n2)cc1O`: the TGI in assay [1], in assay [3], in assay [4], in [5], in [6] and in assay [7] was more than 100 µM in each case. Moreover, the TGI in [8] was more than 100 µM; in assay [10], 90.7 µM; in assay [11], more than 100 µM; in assay [13], more than 100 µM; in assay [14], more than 100 µM; in assay [15] it was more than 100 µM. For the same molecule, the TGI in assay [17], in assay [18] and in [19] was more than 100 µM in each case.

Take `OCC1OC(n2nc(-c3ccccc3)nc2-c2cnccn2)C(O)C(O)C1O` (stereo not given): the TGI in assay [2], in assay [3], in assay [4], in assay [5], in assay [6] and in [7] was more than 100 µM throughout. Further, the TGI in assay [8], in assay [9], in assay [11], in assay [12], in assay [13] and in assay [14] was more than 100 µM throughout. Further, the TGI in [15], in assay [18] and in assay [19] was more than 100 µM each time.

As for `CC1=NCCN=C(C)C1N=Nc1ccc2nc(C)[nH]c2c1`, the TGI was 32.1 µM in [1]; 31.5 µM in assay [2]; 39.9 µM in assay [3]; 38 µM in [4]; 30.6 µM in [5]; more than 100 µM in assay [6]. Further, the TGI came to 24.2 µM in assay [7]; 42.5 µM in [8]; 44.3 µM in assay [9]; 36 µM in assay [10]; 28.6 µM in assay [11]; 17.4 µM in assay [12]. Besides, the TGI in [13] was 22.5 µM; in assay [14], 47.5 µM; in [15], 85.1 µM; in assay [16] it was 40.1 µM; in [17] it was 46.3 µM; in assay [18], more than 100 µM. This molecule also yielded a TGI in assay [19] of 52.1 µM.

Take `CC1(C)[C@H](C(=O)O)N2C(=O)[C@@H](NS(=O)(=O)c3ccc([N+](=O)[O-])cc3)[C@H]2S1(=O)=O`: the TGI in assay [1], in [2], in [3], in [4], in assay [5] and in [6] was more than 100 µM throughout. Further, the TGI in assay [7], in [8], in [9], in assay [10], in assay [11] and in assay [13] was more than 100 µM each time. For the same molecule, the TGI in assay [14], in [15], in assay [16], in assay [17], in assay [18] and in assay [19] was more than 100 µM each time.
